The source of these data is ChEMBL document CHEMBL1127125, “Synthesis and testing of substituted phenylthioribose analogs against Klebsiella pneumoniae” (Bioorg Med Chem Lett, 1993).

Structures are written as SMILES. In brackets after ≈: the same amount, converted by molar mass.

Assay [1] deals with Klebsiella pneumoniae. As to the kind of experiment: Minimum inhibitory concentration of compound for its inhibitory activity against Klebsiella pneumoniae growth at 2.60 ug/mL. Type of assay: functional.
Assay [2] concerns Klebsiella pneumoniae. As to the kind of experiment: Compound was tested for its ability to inhibit the growth of a clinical strain of Klebsiella pneumoniae at 0.01 ng/mL. Type of assay: functional, organism-based.
Assay [3] has as its system Klebsiella pneumoniae. Kind of assay: Concentration required to inhibit the growth of a clinical strain of Klebsiella pneumoniae by 50%. Type of assay: functional, organism-based.
Assay [4] relates to Klebsiella pneumoniae. As to the kind of experiment: Minimum inhibitory concentration of compound for its inhibitory activity against Klebsiella pneumoniae growth at 0.002 ug/mL. Type of assay: functional.
The subject of assay [5] is Klebsiella pneumoniae. Kind of assay: Minimum inhibitory concentration of compound for its inhibitory activity against Klebsiella pneumoniae growth at 20.7 ug/mL. The format is functional.
For assay [6], the system named is Klebsiella pneumoniae. Kind of assay: Compound was tested for its ability to inhibit the growth of a clinical strain of Klebsiella pneumoniae. The format is functional, organism-based.
The nature of assay [7]: Compound was tested for its ability to inhibit the growth of a clinical strain Ochromonas malhamensis. The format is functional.
The next assay concerns Plasmodium falciparum. As to the kind of experiment: Inhibition of Plasmodium falciparum. The format is functional, organism-based.
In assay [8] the test system is Klebsiella pneumoniae. As to the kind of experiment: Minimum inhibitory concentration of compound for its inhibitory activity against Klebsiella pneumoniae growth at 2.4 ug/mL. The format is functional.

For the compound `OC1O[C@H](CSc2ccc(F)cc2)[C@@H](O)[C@H]1O` (stereo partly specified), in the assay on Klebsiella pneumoniae [1], inhibition of growth (MIC) required 10 µM (≈ 2.6 µg/mL). This compound came in with an IC50 with Klebsiella pneumoniae [2] of 0.05 nM.
In the assay with Klebsiella pneumoniae [3], `OC1O[C@H](CSc2ccc(C(F)(F)F)cc2)[C@@H](O)[C@H]1O` (stereo partly specified) gave a 50% inhibitory concentration (IC50) of 40 nM.
`OC1O[C@H](CSc2ccc(I)cc2)[C@@H](O)[C@H]1O` (stereo partly specified) returned an MIC in the assay on Klebsiella pneumoniae [4] of 5 nM (≈ 0.00184 µg/mL).
`OC1O[C@H](CSc2ccc(Cl)cc2)[C@@H](O)[C@H]1O` (stereo partly specified) showed a minimal inhibitory concentration (MIC) in the assay with Klebsiella pneumoniae [5] of 75 µM (≈ 20.8 µg/mL). This compound also yielded a half-maximal inhibitory concentration (IC50) with Klebsiella pneumoniae [2] of 500 nM.
As for `CCSC[C@H]1OC(O)[C@H](O)[C@@H]1O` (stereo partly specified), the IC50 is around 15 mM in the assay with Klebsiella pneumoniae [6], around 75 µM in [7] and around 300 µM with Plasmodium falciparum.
As for `OC1O[C@H](CSc2ccc(Br)cc2)[C@@H](O)[C@H]1O` (stereo partly specified), in the assay with Klebsiella pneumoniae [8], the minimal inhibitory concentration (MIC) was 7.5 µM (≈ 2.41 µg/mL). Besides, the IC50 in the assay on Klebsiella pneumoniae [2] turned out to be 375 nM.
